The compounds below were run against T1, human H1 (Homo sapiens, UniProt P35367) (assay: In vitro histamine H1 receptor cell-based aequorin bioluminescence antagonist assay). Details: CHO-K1 cells expressing human H1 and aequorin; histamine at EC80; read-out: H1 Antagonist EC50.
T1 construct: host or cells: CHO-K1, also expressing mitochondrion-targeted aequorin
Method: In vitro Histamine Receptor Cell-Based Assays
The cell-based assays utilize an aequorin dependent bioluminescence signal. Doubly-transfected, stable CHO—K1 cell lines expressing human H1 or H4, mitochondrion-targeted aequorin, and (H4 only) human G protein Gα16 are obtained from Perkin-Elmer. Cells are maintained in F12 (Ham's) growth medium, containing 10% (vol./vol.) fetal bovine serum, penicillin (100 IU/mL), streptomycin (0.1 mg/mL), zeocin (0.25 mg/mL) and geneticin (0.40 mg/mL). Cell media components are from Invitrogen, Inc. One day prior to assay, the growth medium is replaced with the same, excluding zeocin and geneticin.
For assay preparation, growth medium is aspirated, and cells are rinsed with calcium-free, magnesium-free phosphate-buffered saline, followed by two to three minute incubation in Versene (Invitrogen, Inc.) at 37° C. Assay medium (DMEM:F12 [50:50], phenol-red free, containing 1 mg/mL protease-free bovine serum albumin) is added to collect the released cells, which are then centrifuged. The cell pellet is re-suspended in assay medium, centrifuged once more, and re-suspended in assay medium to a final density of 5×10^6 cells/mL. Coelenterazine-h dye (500 μM in ethanol) is added to a final concentration of 5 μM, and mixed immediately. The conical tube containing the cells is then wrapped with foil to protect the light-sensitive dye. The cells are incubated for four hours further at room temperature (approximately 21° C.) with end-over-end rotation to keep them in suspension.
Just before assay, the dye-loaded cells are diluted to 0.75×10^6 cells/mL (H1 receptor) or 1.5×10^6 cells/mL (H4 receptor) with additional assay medium. Cells are dispensed to 1536 well micro-titer plates at 3 μL/well. To assay receptor antagonism, 60 nl of 100× concentration test compounds in 100% dimethyl sulfoxide (DMSO) are dispensed to the wells, one compound per well, by passive pin transfer, and the plates are incubated for 15 minutes at room temperature. […] The pipette dispenses 3 μL/well of agonist (histamine, at twice the final concentration, where final concentration is a previously determined EC80) in assay medium, with concurrent bioluminescence detection. Agonist activity of test compounds is excluded by separate assays that measure response to test compounds immediately, without added histamine agonist.
CCD image capture on the Lumilux includes a 5 second baseline read prior to agonist addition, and generally a 40 second read per plate after agonist addition. A decrease in bioluminescence signal (measured either as area-under-the-curve, or maximum signal amplitude minus minimum signal amplitude) correlates with receptor antagonism in a dose dependent manner. The negative control is DMSO lacking any test compound. For antagonist assays, the positive controls are diphenhydramine (2-Diphenylmethoxy-N,N-dimethylethylamine, 10 μM final concentration, H1 receptor) or JNJ7777120 (1-[(5-Chloro-1H-indol-2-yl)carbonyl]-4-methyl-piperazine, 10 μM final concentration, H4 receptor). Efficacy is measured as a percentage of positive control activity.

T1 sequence (P35367 whole entry): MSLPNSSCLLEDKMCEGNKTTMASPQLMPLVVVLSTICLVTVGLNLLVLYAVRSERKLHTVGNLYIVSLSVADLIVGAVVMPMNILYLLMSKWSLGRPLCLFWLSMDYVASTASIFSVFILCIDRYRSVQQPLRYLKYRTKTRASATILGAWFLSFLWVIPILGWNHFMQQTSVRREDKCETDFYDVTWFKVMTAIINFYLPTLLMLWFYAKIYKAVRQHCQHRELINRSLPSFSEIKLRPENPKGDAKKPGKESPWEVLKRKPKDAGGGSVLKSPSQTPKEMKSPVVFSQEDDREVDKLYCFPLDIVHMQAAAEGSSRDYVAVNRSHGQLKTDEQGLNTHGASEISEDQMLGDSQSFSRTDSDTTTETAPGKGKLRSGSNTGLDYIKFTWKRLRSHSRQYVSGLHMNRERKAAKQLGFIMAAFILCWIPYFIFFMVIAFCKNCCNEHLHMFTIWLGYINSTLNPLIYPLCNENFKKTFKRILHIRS

Structure (SMILES)	EC50
Clc1ccc(CCNc2ccnc3sccc23)cc1 [Example 38, N-(4-chlorophenethyl)thieno[2,3-b]pyridin-4-amine]	> 10 µM
Cc1csc2ncnc(NCCc3ccccc3F)c12 [Example 127, N-[2-(2-fluorophenyl)ethyl]-5-methylthieno[2,3-d]pyrimidin-4-amine]	> 10 µM
CCCCN(C)c1ncnc2scc(C)c12 [Example 187, N-butyl-N,5-dimethylthieno[2,3-d]pyrimidin-4-amine]	> 10 µM
CCc1cc2c(N3CCN(Cc4ccccc4)CC3)ncnc2s1 [Example 14, 4-(4-benzylpiperazin-1-yl)-6-ethylthieno[2,3-d]pyrimidine]	> 10 µM
Cc1csc2ncnc(NC3CCCCC3C)c12 (centres unmarked) [Example 91, 5-methyl-N-(2-methylcyclohexyl)thieno[2,3-d]pyrimidin-4-amine]	> 10 µM
Cc1csc2ncnc(N[C@H](CO)Cc3ccccc3)c12 [Example 143, (2S)-2-({5-methylthieno[2,3-d]pyrimidin-4-yl}amino)-3-phenylpropan-1-ol]	> 10 µM
Cc1csc2ncnc(NCc3ccc(F)c(Cl)c3)c12 [Example 152, N-[(3-chloro-4-fluorophenyl)methyl]-5-methylthieno[2,3-d]pyrimidin-4-amine]	> 10 µM
Cc1csc2ncnc(NCCCNC(=O)OC(C)(C)C)c12 [Example 163, tert-butyl N-[3-({5-methylthieno[2,3-d]pyrimidin-4-yl}amino)propyl]carbamate]	> 10 µM
Cc1csc2ncnc(NCC3CCCO3)c12 (centres unmarked) [Example 77, 5-methyl-N-(oxolan-2-ylmethyl)thieno[2,3-d]pyrimidin-4-amine]	> 10 µM
Cc1csc2ncnc(NCc3cccc(Cl)c3)c12 [Example 129, N-[(3-chlorophenyl)methyl]-5-methylthieno[2,3-d]pyrimidin-4-amine]	> 10 µM
Cc1csc2ncnc(NCCc3ccc(F)cc3)c12 [Example 17]	> 10 µM
CCCC(C)Nc1ncnc2scc(C)c12 (centres unmarked) [Example 66, 5-methyl-N-(pentan-2-yl)thieno[2,3-d]pyrimidin-4-amine]	> 10 µM
Cc1cccc(CNc2ncnc3scc(C)c23)c1 [Example 95, 5-methyl-N-[(3-methylphenyl)methyl]thieno[2,3-d]pyrimidin-4-amine]	> 10 µM
Cc1ccc(C)c(CNc2ncnc3scc(C)c23)c1 [Example 113, N-[(2,5-dimethylphenyl)methyl]-5-methylthieno[2,3-d]pyrimidin-4-amine]	> 10 µM
Cc1ccccc1CNc1ncnc2scc(C)c12 [Example 99, 5-methyl-N-[(2-methylphenyl)methyl]thieno[2,3-d]pyrimidin-4-amine]	> 10 µM
CCC(CO)Nc1ncnc2scc(C)c12 (centres unmarked) [Example 73, 2-({5-methylthieno[2,3-d]pyrimidin-4-yl}amino)butan-1-ol]	> 10 µM
Cc1csc2ncnc(NCCc3ccc(S(N)(=O)=O)cc3)c12 [Example 173, 4-[2-({5-methylthieno[2,3-d]pyrimidin-4-yl}amino)ethyl]benzene-1-sulfonamide]	> 10 µM
Cc1csc2ncnc(NCC3CC3)c12 [Example 59, N-(cyclopropylmethyl)-5-methylthieno[2,3-d]pyrimidin-4-amine]	> 10 µM
Cc1csc2ncnc(NCc3ccc(F)c(F)c3)c12 [Example 134, N-[(3,4-difluorophenyl)methyl]-5-methylthieno[2,3-d]pyrimidin-4-amine]	> 10 µM
Cc1csc2ncnc(NC3CCN(Cc4ccccc4)C3)c12 (centres unmarked) [Example 168, 1-benzyl-N-{5-methylthieno[2,3-d]pyrimidin-4-yl}pyrrolidin-3-amine]	> 10 µM
Cc1csc2ncnc(NC(C)C(C)C)c12 (centres unmarked) [Example 68, 5-methyl-N-(3-methylbutan-2-yl)thieno[2,3-d]pyrimidin-4-amine]	> 10 µM
Cc1csc2ncnc(CCCc3ccc(Cl)cc3)c12 [Example 23, 4-(3-(4-chlorophenyl)propyl)-5-methylthieno[2,3-d]pyrimidine]	> 10 µM
Cc1csc2ncnc(C(=O)CCc3ccc(Cl)cc3)c12 [Example 25, 3-(4-chlorophenyl)-1-(5-methylthieno[2,3-d]pyrimidin-4-yl)propan-1-one]	> 10 µM
Cc1csc2ncnc(NCC3CCc4cc(Cl)ccc43)c12 (centres unmarked) [Example 30, N-((5-chloro-2,3-dihydro-1H-inden-1-yl)methyl)-5-methylthieno[2,3-d]pyrimidin-4-amine]	> 10 µM
COc1ccc(CCNc2ccnc3scc(C)c23)cc1 [Example 37, N-(4-methoxyphenethyl)-3-methylthieno[2,3-b]pyridin-4-amine]	> 10 µM
Cc1csc2ncnc(OCCc3ccc(Cl)cc3)c12 [Example 26, 4-(4-chlorophenethoxy)-5-methylthieno[2,3-d]pyrimidine]	> 10 µM
Cc1csc2ncnc(NCCNC(=O)OC(C)(C)C)c12 [Example 154, tert-butyl N-[2-({5-methylthieno[2,3-d]pyrimidin-4-yl}amino)ethyl]carbamate]	> 10 µM
CCOC(=O)N1CCC(Nc2ncnc3scc(C)c23)CC1 [Example 162, ethyl 4-({5-methylthieno[2,3-d]pyrimidin-4-yl}amino)piperidine-1-carboxylate]	> 10 µM
CCOc1ccccc1CNc1ncnc2scc(C)c12 [Example 146, N-[(2-ethoxyphenyl)methyl]-5-methylthieno[2,3-d]pyrimidin-4-amine]	> 10 µM
Cc1csc2ncnc(NC(C)CCc3ccccc3)c12 (centres unmarked) [Example 139, 5-methyl-N-(4-phenylbutan-2-yl)thieno[2,3-d]pyrimidin-4-amine]	> 10 µM

Second part, the compound after the results:

EC50	Structure (SMILES)
> 10 µM	Cc1sc2ncnc(N3CCN(S(=O)(=O)c4ccc(C(C)(C)C)cc4)CC3)c2c1C [Example 310, 4-(4-(4-tert-butylphenylsulfonyl)piperazin-1-yl)-5,6-dimethylthieno[2,3-d]pyrimidine]
> 10 µM	Clc1ccc(CCNc2ncnc3sc4c(c23)CCCC4)c(Cl)c1 [Example 313]
> 10 µM	Cc1csc2ncnc(N3CCCCC3CO)c12 (centres unmarked) [Example 206, (1-{5-methylthieno[2,3-d]pyrimidin-4-yl}piperidin-2-yl)methanol]
> 10 µM	Cc1csc2ncnc(N3CCCCC3CCO)c12 (centres unmarked) [Example 215, 2-(1-{5-methylthieno[2,3-d]pyrimidin-4-yl}piperidin-2-yl)ethan-1-ol]
> 10 µM	Cc1csc2ncnc(N3CCSC3)c12 [Example 189, 3-{5-methylthieno[2,3-d]pyrimidin-4-yl}-1,3-thiazolidine]
> 10 µM	CCOC(=O)CNc1ncnc2scc(-c3ccccc3)c12 [Example 300, Ethyl 2-(5-phenylthieno[2,3-d]pyrimidin-4-ylamino)acetate]
> 10 µM	Cc1csc2ncnc(N3CCC(Cc4ccccc4)CC3)c12 [Example 240, 4-benzyl-1-{5-methylthieno[2,3-d]pyrimidin-4-yl}piperidine]
> 10 µM	COC[C@@H]1CCCN1c1ncnc2scc(C)c12 [Example 205, (2S)-2-(methoxymethyl)-1-{5-methylthieno[2,3-d]pyrimidin-4-yl}pyrrolidine]
> 10 µM	Cc1ccc(N2CCN(c3ncnc4scc(C)c34)CC2)c(C)c1 [Example 258, 1-(2,4-dimethylphenyl)-4-{5-methylthieno[2,3-d]pyrimidin-4-yl}piperazine]
> 10 µM	Cc1csc2ncnc(N3CCN(c4ccc([N+](=O)[O-])cc4)CC3)c12 [Example 273, 1-{5-methylthieno[2,3-d]pyrimidin-4-yl}-4-(4-nitrophenyl)piperazine]
> 10 µM	Cc1csc2ncnc(N3CCCCC3C)c12 (centres unmarked) [Example 190, 2-methyl-1-{5-methylthieno[2,3-d]pyrimidin-4-yl}piperidine]
> 10 µM	Clc1ccccc1CCNc1ncnc2sc3c(c12)CCCC3 [Example 297]
> 10 µM	OCCCCNc1ncnc2scc(-c3ccccc3)c12 [Example 312, 4-(5-phenylthieno[2,3-d]pyrimidin-4-ylamino)butan-1-ol]
> 10 µM	Cc1csc2ncnc(N3CCC(NC(=O)OC(C)(C)C)C3)c12 (centres unmarked) [Example 251, tert-butyl N-(1-{5-methylthieno[2,3-d]pyrimidin-4-yl}pyrrolidin-3-yl)carbamate]
